Results on 41 compounds are retold here after PubChem BioAssay AID1996.

Converted amounts (≈) assume the structure as drawn. Some results are limits rather than exact numbers.

For the series the following is noted: buffer; pH 7.4; 200.0 µM.
The term solubility (kinetic) denotes the concentration staying in solution when a stock, usually in DMSO, is diluted into the medium. Take `O=C(C1=C(O)C(=O)N(CCOCCO)C1c1ccccn1)c1cccs1` (stereo unspecified): the kinetic solubility is greater than 56.2 µg/mL. As for `Cl.O=C(CCN1CCN(CCO)CC1)N1c2ccccc2Sc2ccc(C(F)(F)F)cc21`, the kinetic solubility was 65.7 µg/mL.

On to `Cn1cc(C(=O)CCl)c2ccccc21`, for which the kinetic solubility is greater than 31.1 µg/mL.

On to `Cc1cc(C)cc(NS(=O)(=O)c2ccc(F)cc2)c1`, for which the solubility (kinetic) was greater than 41.9 µg/mL. `COc1ccc(NC(=O)CNC(=O)C2CCCCC2)cc1` gave a solubility (kinetic) of 39.7 µg/mL (≈ 137 µM). Next, `COC(=O)c1ccc(CNC(=O)COC(=O)c2cc(Cl)ccc2O)cc1`: 7.1 µg/mL (≈ 18.8 µM); `Cc1cccc(Cc2nnc(CCC(=O)N(C)Cc3ccncc3C)o2)c1`: greater than 54.7 µg/mL; `CC(NCCC(c1ccccc1)c1ccccc1)c1ccccc1.Cl` (stereo unspecified): greater than 52.8 µg/mL. With `Cc1ccccc1Cn1c(-c2ccc(=O)[nH]c2)nc2ccccc21`, the kinetic solubility was determined as 27.8 µg/mL (≈ 88.1 µM). Next, `COC(=O)c1ccc(C(=O)OC)c(NC(=S)N2CCN(C)CC2)c1`: greater than 52.7 µg/mL; `CN(CCC#N)Cc1cc(=O)oc2ccc3ccccc3c12`: 33.5 µg/mL (≈ 115 µM). As for `Cc1cccc(-n2c(O)c(C=Nc3cccc(O)c3)c3ccccc3c2=O)n1`, the figure is 0.8 µg/mL (≈ 2.15 µM); as for `Cc1ccc(NC2CC(=O)N(c3cccc([N+](=O)[O-])c3)C2=O)cc1` (stereo unspecified), 39 µg/mL (≈ 120 µM). In turn, `CC(=O)Nc1ccc(S(=O)(=O)c2cc(O)ccc2O)cc1` came in with a kinetic solubility greater than 46.1 µg/mL. As for `O=C(COC(=O)CCNS(=O)(=O)c1ccccc1)NC1CC1`, the figure is 43.8 µg/mL (≈ 134 µM); as for `O=C(Nc1ncc([N+](=O)[O-])s1)c1ccc2c(c1)OCO2`, 24.9 µg/mL (≈ 84.9 µM).

Compound `Cn1cccc1C(=O)/C(C#N)=C/c1ccc(F)cc1` yielded a solubility (kinetic) of 36.3 µg/mL (≈ 143 µM). As for `CCOc1ccc(Br)cc1S(=O)(=O)N1CCSC1`, the figure is 7.2 µg/mL (≈ 20.4 µM); as for `CSCC[C@H](NC(=O)c1cccc(S(=O)(=O)N2CCN(C)CC2)c1)c1nc2ccccc2[nH]1`, greater than 73.1 µg/mL. Next, `O=C1C2C3CCC(C3)C2C(=O)N1c1ccc2ccccc2c1` (stereo unspecified): 5 µg/mL (≈ 17.2 µM). As for `Cc1ccc(S(=O)(=O)N2CCCN(C)CC2)cc1.Cl`, the solubility (kinetic) was greater than 45.7 µg/mL. Next, `O=C(Nc1cccc(O)c1)C1CC(c2c(F)cccc2Cl)=NO1` (stereo unspecified): 29.5 µg/mL (≈ 88.1 µM); `Cc1ccc(Nc2nc(C)nc3c2oc2ccccc23)cc1`: 0.3 µg/mL (≈ 1.04 µM); `COc1ccc(/C=C/C(=O)OCC(=O)NC2CCCCCCC2)cc1`: 7.6 µg/mL (≈ 22 µM). On to `COc1ccc(COc2cccnc2N)cc1`, for which the kinetic solubility is 20.1 µg/mL (≈ 87.3 µM). As for `Cc1ccc(NC(=S)NCCSc2ccc(Cl)cc2)cc1`, the figure is less than 0.4 µg/mL. `CCc1ccccc1NC(=O)c1sc2nc(C)cc(C)c2c1N` displayed a kinetic solubility of 0.5 µg/mL (≈ 1.54 µM).

With `Cc1noc(NS(=O)(=O)c2ccc(NC(=O)CC(C)C)cc2)c1C`, the kinetic solubility is greater than 52.7 µg/mL. In turn, `O=C(NCCc1ccncc1)Nc1ccc(F)cc1` gave a kinetic solubility greater than 38.9 µg/mL. Next, `CCCS(=O)(=O)N1CCCC(C(=O)Oc2ccccc2Cl)C1` (stereo unspecified): 45.6 µg/mL (≈ 132 µM); `COc1ccccc1OCCn1cc(C(=O)C(C)C)c2ccccc21`: less than 0.7 µg/mL; `COc1cccc(NC(=O)CN(C)C(C)C(=O)N2CCCCC2)c1.O=C(O)C(=O)O` (stereo unspecified): greater than 63.5 µg/mL. `O=C(Nc1nccs1)c1c(O)c2c([nH]c1=O)CCCC2` gave a kinetic solubility of 0.9 µg/mL (≈ 3.09 µM). `S=C(Nc1ccccn1)NC1CCCCC1` registered a solubility (kinetic) of 5.7 µg/mL (≈ 24.2 µM). Compared with the last compound, the solubility kinetic is about 6.3-fold higher. Next, `Nc1nc2c(s1)CCCCCCCCCC2`: 6.6 µg/mL (≈ 27.7 µM); `CN(C)Cc1c(O)ccc2c(=O)c(-c3ccccc3Cl)coc12`: greater than 49.5 µg/mL; `CCCCN(C)C(=O)c1ccc2c(c1)S(=O)(=O)c1ccccc1C2=O`: greater than 53.6 µg/mL. Compound `CCOC(=O)C1=C(Nc2ccc(OC)cc2)OCC1=O` yielded a kinetic solubility of 39.5 µg/mL (≈ 142 µM). Next, `COc1cccc(-c2noc(-c3ccc(Br)o3)n2)c1`: 0.5 µg/mL (≈ 1.56 µM); `COc1ccc(Nc2cc(C)c3ccccc3n2)cc1`: 12.6 µg/mL (≈ 47.7 µM). `Cc1ccccc1NC(=S)NC1CCCC1` gave a kinetic solubility of 34.9 µg/mL (≈ 149 µM). Against the preceding compound, the solubility kinetic is about 2.8-fold higher.
